PubChem BioAssay AID256 (DTP/NCI, 2004)
Several values for one entry are separate records, joined by “and”; a condition that tells them apart may be missing. Equal values may be shown once. Toxic doses and inconclusive results are not listed.

System: CD2F1 mice, L1210 leukemia ip, survival T/C
Experiment: NCI In Vivo Anticancer Drug Screen. Data for tumor model L1210 Leukemia (intraperitoneal) in CD2F1 (CDF1) mice
Conditions: higher = longer survival
In short: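 Each value reflects a quotient of treated over vehicle control outcomes in mice with a transplanted tumor.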

[1] = endpoint: mean survival time, dose: 100.0 mg/kg/injection, schedule: Q01DX001 (ip), vehicle: saline with Tween-80
[2] = endpoint: mean survival time, dose: 200.0 mg/kg/injection, schedule: Q01DX001 (ip), vehicle: saline with Tween-80
[3] = endpoint: mean survival time, dose: 400.0 mg/kg/injection, schedule: Q01DX001 (ip), vehicle: saline with Tween-80
[4] = endpoint: mean survival time, dose: 100.0 mg/kg/injection, schedule: Q01DX001 (ip), vehicle: saline
[5] = endpoint: mean survival time, dose: 200.0 mg/kg/injection, schedule: Q01DX001 (ip), vehicle: saline
[6] = endpoint: mean survival time, dose: 100.0 mg/kg/injection, schedule: Q01DX009 (ip), vehicle: saline with Tween-80
[7] = endpoint: mean survival time, dose: 200.0 mg/kg/injection, schedule: Q01DX009 (ip), vehicle: saline with Tween-80
[8] = endpoint: mean survival time, dose: 400.0 mg/kg/injection, schedule: Q01DX009 (ip), vehicle: saline with Tween-80
[9] = endpoint: mean survival time, dose: 25.0 mg/kg/injection, schedule: Q04DX002 (ip), vehicle: saline with Tween-80
[10] = endpoint: mean survival time, dose: 50.0 mg/kg/injection, schedule: Q04DX002 (ip), vehicle: saline with Tween-80
[11] = endpoint: mean survival time, dose: 12.5 mg/kg/injection, schedule: Q01DX009 (ip), vehicle: saline with Tween-80
[12] = endpoint: mean survival time, dose: 25.0 mg/kg/injection, schedule: Q01DX009 (ip), vehicle: saline with Tween-80
[13] = endpoint: mean survival time, dose: 50.0 mg/kg/injection, schedule: Q01DX009 (ip), vehicle: saline with Tween-80
[14] = endpoint: mean survival time, dose: 6.25 mg/kg/injection, schedule: Q01DX009 (ip), vehicle: saline with Tween-80
[15] = endpoint: mean survival time, dose: 25.0 mg/kg/injection, schedule: Q04DX003 (ip), vehicle: saline with Tween-80
[16] = endpoint: mean survival time, dose: 100.0 mg/kg/injection, schedule: Q04DX003 (ip), vehicle: saline with Tween-80
[17] = endpoint: mean survival time, dose: 200.0 mg/kg/injection, schedule: Q04DX003 (ip), vehicle: saline with Tween-80
[18] = endpoint: mean survival time, dose: 400.0 mg/kg/injection, schedule: Q04DX003 (ip), vehicle: saline with Tween-80
[19] = endpoint: mean survival time, dose: 12.5 mg/kg/injection, schedule: Q01DX005 (ip), vehicle: water
[20] = endpoint: mean survival time, dose: 25.0 mg/kg/injection, schedule: Q01DX005 (ip), vehicle: water
[21] = endpoint: mean survival time, dose: 50.0 mg/kg/injection, schedule: Q01DX005 (ip), vehicle: water
[22] = endpoint: mean survival time, dose: 100.0 mg/kg/injection, schedule: Q01DX005 (ip), vehicle: water
[23] = endpoint: mean survival time, dose: 200.0 mg/kg/injection, schedule: Q01DX005 (ip), vehicle: water

## c1ccc(N=NC2(c3ccccc3)CC(c3ccccc3)=NN(c3ccccc3)C2NNc2ccccc2)cc1 (stereo not given)
[1]
  T/C: 96 % of control
[2]
  T/C: 102 % of control
[3]
  T/C: 96 % of control

## COc1cccc(/C=N/[N+](C)(C)C)c1O
endpoint: mean survival time, dose: 50.0 mg/kg/injection, schedule: Q01DX001 (ip), vehicle: saline
  T/C: 107 % of control
[4]
  T/C: 101 % of control
[5]
  T/C: 97 % of control

## COc1cccc2c1C(=O)c1c(O)c3c(c(O)c1C2=O)C[C@@](O)(C(=O)CO)C[C@@H]3OC1CC(N)C(OC)C(C)O1 (stereo not given in full)
endpoint: mean survival time, dose: 0.54 mg/kg/injection, schedule: Q01DX009 (ip), vehicle: saline
  T/C: 159 % of control
endpoint: mean survival time, dose: 0.65 mg/kg/injection, schedule: Q01DX009 (ip), vehicle: saline
  T/C: 207 % of control
endpoint: mean survival time, dose: 0.9 mg/kg/injection, schedule: Q01DX009 (ip), vehicle: saline
  T/C: 229 % of control
endpoint: mean survival time, dose: 1.08 mg/kg/injection, schedule: Q01DX009 (ip), vehicle: saline
  T/C: 319 % of control
endpoint: mean survival time, dose: 1.3 mg/kg/injection, schedule: Q01DX001 (ip), vehicle: saline
  T/C: 161 % of control
endpoint: mean survival time, dose: 1.8 mg/kg/injection, schedule: Q01DX009 (ip), vehicle: saline
  T/C: 250 % of control
endpoint: mean survival time, dose: 2.16 mg/kg/injection, schedule: Q01DX001 (ip), vehicle: saline
  T/C: 161 % of control
endpoint: mean survival time, dose: 3.0 mg/kg/injection, schedule: Q01DX009 (ip), vehicle: saline
  T/C: 93 % of control
endpoint: mean survival time, dose: 3.6 mg/kg/injection, schedule: Q01DX001 (ip), vehicle: saline
  T/C: 168 % of control and 170 % of control
endpoint: mean survival time, dose: 6.0 mg/kg/injection, schedule: Q01DX001 (ip), vehicle: saline
  T/C: 189 % of control and 353 % of control
endpoint: mean survival time, dose: 10.0 mg/kg/injection, schedule: Q01DX001 (ip), vehicle: saline
  T/C: 187 % of control and 260 % of control

## O=C1N(CCc2ccccc2)CC2C(c3ccccc3)NNC12O (stereo not given)
[1]
  T/C: 96 % of control
[2]
  T/C: 87 % of control
[3]
  T/C: 87 % of control

## Cc1ccc(S(=O)(=O)N=P(c2ccccc2)(c2ccccc2)c2ccccc2)cc1
[6]
  T/C: 93 % of control and 94 % of control
[7]
  T/C: 88 % of control
[8]
  T/C: 91 % of control and 93 % of control

## O=P(CP(c1ccccc1)c1ccccc1)(c1ccccc1)c1ccccc1
[9]
  T/C: 96 % of control
[10]
  T/C: 92 % of control
endpoint: mean survival time, dose: 100.0 mg/kg/injection, schedule: Q04DX002 (ip), vehicle: saline with Tween-80
  T/C: 92 % of control

## O=S(=O)(Cc1ccc(CS(=O)(=O)c2ccc(Cl)cc2)cc1)c1ccc(Cl)cc1
[11]
  T/C: 91 % of control
[12]
  T/C: 90 % of control
[13]
  T/C: 91 % of control

## ON(C(=Nc1ccccc1)c1ccccc1Cl)c1ccccc1
[14]
  T/C: 106 % of control
endpoint: mean survival time, dose: 6.25 mg/kg/injection, schedule: Q04DX003 (ip), vehicle: saline with Tween-80
  T/C: 102 % of control
[11]
  T/C: 101 % of control
endpoint: mean survival time, dose: 12.5 mg/kg/injection, schedule: Q04DX003 (ip), vehicle: saline with Tween-80
  T/C: 104 % of control
[15]
  T/C: 102 % of control
[4]
  T/C: 102 % of control
[5]
  T/C: 102 % of control

## Nc1ccc2ccccc2c1N=Nc1ccccc1
endpoint: mean survival time, dose: 50.0 mg/kg/injection, schedule: Q01DX009 (ip), vehicle: Klucel (hydroxypropylcellulose) (HPC)
  T/C: 106 % of control
endpoint: mean survival time, dose: 100.0 mg/kg/injection, schedule: Q01DX009 (ip), vehicle: Klucel (hydroxypropylcellulose) (HPC)
  T/C: 112 % of control
endpoint: mean survival time, dose: 200.0 mg/kg/injection, schedule: Q01DX009 (ip), vehicle: Klucel (hydroxypropylcellulose) (HPC)
  T/C: 113 % of control
endpoint: mean survival time, dose: 400.0 mg/kg/injection, schedule: Q01DX009 (ip), vehicle: Klucel (hydroxypropylcellulose) (HPC)
  T/C: 103 % of control

## CC(=O)OC1CSC(C(C)(C)C)SC1 (stereo not given)
endpoint: mean survival time, dose: 12.5 mg/kg/injection, schedule: Q04DX002 (ip), vehicle: saline with Tween-80
  T/C: 102 % of control
[9]
  T/C: 102 % of control
[10]
  T/C: 108 % of control

## O=c1nc(N2CCCCC2)ccn1C1OC(CO)C(O)C1O (stereo not given)
endpoint: median survival time, dose: 12.5 mg/kg/injection, schedule: Q01DX005 (ip), vehicle: water
  T/C: 98 % of control
endpoint: median survival time, dose: 25.0 mg/kg/injection, schedule: Q01DX005 (ip), vehicle: water
  T/C: 106 % of control
endpoint: median survival time, dose: 50.0 mg/kg/injection, schedule: Q01DX005 (ip), vehicle: water
  T/C: 106 % of control
endpoint: median survival time, dose: 100.0 mg/kg/injection, schedule: Q01DX005 (ip), vehicle: water
  T/C: 112 % of control
endpoint: median survival time, dose: 200.0 mg/kg/injection, schedule: Q01DX005 (ip), vehicle: water
  T/C: 104 % of control

## O=S(CS(=O)c1ccccc1)c1ccccc1 (stereo not given)
[16]
  T/C: 100 % of control
[17]
  T/C: 109 % of control
[18]
  T/C: 105 % of control

## N=C(N)SCCCSC(=N)N
[12]
  T/C: 101 % of control
[13]
  T/C: 96 % of control
endpoint: mean survival time, dose: 50.0 mg/kg/injection, schedule: Q04DX003 (ip), vehicle: saline
  T/C: 98 % of control
[6]
  T/C: 90 % of control
endpoint: mean survival time, dose: 100.0 mg/kg/injection, schedule: Q04DX003 (ip), vehicle: saline
  T/C: 104 % of control
endpoint: mean survival time, dose: 200.0 mg/kg/injection, schedule: Q04DX003 (ip), vehicle: saline
  T/C: 102 % of control

## Cn1c2ccccc2c(=O)c2ccc(Cl)cc21
[16]
  T/C: 95 % of control
[17]
  T/C: 96 % of control
[18]
  T/C: 96 % of control

## COC(=O)c1cc(C)c(C)cc1NC1OC(CO)C(O)C1O (stereo not given)
[4]
  T/C: 91 % of control
[5]
  T/C: 89 % of control
endpoint: mean survival time, dose: 400.0 mg/kg/injection, schedule: Q01DX001 (ip), vehicle: saline
  T/C: 86 % of control

## C(=NC1CCCCC1)c1c[nH]c2ccccc12
[6]
  T/C: 87 % of control
[16]
  T/C: 91 % of control
[7]
  T/C: 89 % of control
[17]
  T/C: 91 % of control
[18]
  T/C: 98 % of control

## Cc1ncc(CNC(=O)N(CCCl)N=O)c(N)n1
endpoint: mean survival time, dose: 3.12 mg/kg/injection, schedule: Q01DX009 (ip), vehicle: saline
  T/C: 159 % of control
endpoint: mean survival time, dose: 3.13 mg/kg/injection, schedule: Q01DX009 (ip), vehicle: saline with Tween-80
  T/C: 180 % of control
[14]
  T/C: 195 % of control
endpoint: mean survival time, dose: 6.25 mg/kg/injection, schedule: Q01DX009 (ip), vehicle: saline
  T/C: 236 % of control
[11]
  T/C: 357 % of control
endpoint: mean survival time, dose: 12.5 mg/kg/injection, schedule: Q01DX009 (ip), vehicle: saline
  T/C: 288 % of control
endpoint: mean survival time, dose: 17.5 mg/kg/injection, schedule: Q04DX002 (ip), vehicle: saline
  T/C: 337 % of control
[12]
  T/C: 220 % of control
endpoint: mean survival time, dose: 35.0 mg/kg/injection, schedule: Q04DX002 (ip), vehicle: saline
  T/C: 316 % of control

## CC1(C)CC(NC(=O)CSc2ncnc3c2ncn3C2OC(CO)C(O)C2O)CC(C)(C)N1O (stereo not given)
[19]
  T/C: 96 % of control
[20]
  T/C: 94 % of control
[21]
  T/C: 94 % of control
[22]
  T/C: 102 % of control
[23]
  T/C: 96 % of control

## O=C(Sc1cn(C2CC(O)C(CO)O2)c(=O)[nH]c1=O)c1ccc(N(CCCl)CCCl)cc1 (stereo not given)
[19]
  T/C: 117 % of control
[20]
  T/C: 115 % of control
[21]
  T/C: 124 % of control
endpoint: mean survival time, dose: 66.0 mg/kg/injection, schedule: Q01DX005 (ip), vehicle: water
  T/C: 119 % of control
[22]
  T/C: 119 % of control
[23]
  T/C: 120 % of control

## C/C(=N\Nc1ccc([N+](=O)[O-])cc1[N+](=O)[O-])c1ccc[nH]1
[6]
  T/C: 87 % of control
[16]
  T/C: 95 % of control
[7]
  T/C: 97 % of control
[17]
  T/C: 95 % of control
[8]
  T/C: 93 % of control
[18]
  T/C: 91 % of control

## COc1cc(/C=C/[N+](=O)[O-])cc(Br)c1OC
endpoint: median survival time, dose: 6.25 mg/kg/injection, schedule: Q01DX009 (ip), vehicle: saline with Tween-80
  T/C: 103 % of control
endpoint: median survival time, dose: 12.5 mg/kg/injection, schedule: Q01DX009 (ip), vehicle: saline with Tween-80
  T/C: 96 % of control
endpoint: median survival time, dose: 25.0 mg/kg/injection, schedule: Q01DX009 (ip), vehicle: saline with Tween-80
  T/C: 109 % of control

## CC(=O)NS(=O)(=O)c1ccc([NH-])cc1.CC(=O)NS(=O)(=O)c1ccc([NH-])cc1.[I][Pt+2][I]
[15]
  T/C: 96 % of control
endpoint: mean survival time, dose: 50.0 mg/kg/injection, schedule: Q04DX003 (ip), vehicle: saline with Tween-80
  T/C: 94 % of control
[16]
  T/C: 107 % of control
[17]
  T/C: 100 % of control
[18]
  T/C: 103 % of control

## Cc1ccc(Nc2ccc(Nc3ccc(C)cc3)c3c2C(=O)c2ccccc2C3=O)cc1
[6]
  T/C: 86 % of control
[7]
  T/C: 89 % of control
[8]
  T/C: 89 % of control
